Data reported in BindingDB's records for patent US20240101552 (Shanghai Pharmaceuticals Holding Co., 2024).

Target: T1, LanC-like protein 2 (Homo sapiens, UniProt Q9NS86)
T1 sequence (Q9NS86 whole entry): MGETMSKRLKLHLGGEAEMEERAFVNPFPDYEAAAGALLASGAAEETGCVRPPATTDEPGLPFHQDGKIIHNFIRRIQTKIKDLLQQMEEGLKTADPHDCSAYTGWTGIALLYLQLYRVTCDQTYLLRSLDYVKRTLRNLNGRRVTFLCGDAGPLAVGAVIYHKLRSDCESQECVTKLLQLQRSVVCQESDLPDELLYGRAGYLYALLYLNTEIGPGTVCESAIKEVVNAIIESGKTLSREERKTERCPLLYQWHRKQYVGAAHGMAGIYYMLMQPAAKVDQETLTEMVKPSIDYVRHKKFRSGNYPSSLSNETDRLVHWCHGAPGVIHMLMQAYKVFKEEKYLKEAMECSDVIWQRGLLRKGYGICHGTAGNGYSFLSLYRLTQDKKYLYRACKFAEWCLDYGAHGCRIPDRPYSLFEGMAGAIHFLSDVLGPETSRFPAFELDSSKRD
Test: Receptor Binding Assay
Procedure: 1. […] The kinetic parameters of small molecules BT-11 and L-1 to 60 (analytes) binding to LANCL2 (ligand) were determined using BIACORE S200. Data were generated in triplicate in a dose-dependent manner (5-8 titration points) and analyzed to determine binding models (Langmuir, conformational shifts, etc.), real-time association and dissociation constants, and equilibrium dissociation constants. SPR technology allows the validation of specific LANCL2-phytochemical interactions as well as an increased insight into the gold standard of binding mechanisms and rates. Experiments were performed on carboxymethyl polydextrose (CM5) sensor chips by amine-coupled covalent attachment of LANCL2. Data were analyzed with BIACORE S200T200 evaluation software (version 1), so as to determine affinity binding constants (KD) using a 1:1 binding model.

Row | Structure (SMILES) | Kd
1 | O=C(c1cccc(-c2cn3ccccc3n2)c1)N1CC2CC1CN2C(=O)c1cccc(-c2nc3ccccc3[nH]2)n1 [US20240101552, Compound L-4] | 40 µM
2 | O=C(c1ccnc(Nc2ccccn2)c1)N1CC2CN(C(=O)c3cccc(-c4nc5ccccc5[nH]4)n3)CC2C1 [US20240101552, Compound L-53] | 36 µM
3 | O=C(c1cccc(Nc2ccccc2)n1)N1CCC2(CCN(C(=O)c3cccc(-c4nc5ccccc5[nH]4)n3)CC2)C1 [US20240101552, Compound L-61] | 23.2 µM
4 | O=C(c1cccc(Nc2ccccc2)n1)N1CC2CN(C(=O)c3ccnc(Nc4ccccc4)n3)CC2C1 [US20240101552, Compound L-102] | 29.5 µM
5 | O=C(N[C@H]1[C@@H]2CN(C(=O)c3n[nH]c4ccccc34)C[C@@H]21)c1cccc(-c2cn3ccccc3n2)c1 [US20240101552, Compound L-106] | 4.32 µM
6 | O=C(NC1C2CN(C(=O)c3cccc(-c4nc5ccccc5[nH]4)n3)CC21)c1ccnc(Nc2ccccn2)n1 [US20240101552, Compound L-25] | 2.01 µM
7 | O=C(c1cccc(-c2cn3ccccc3n2)c1)N1CC2CN(C(=O)c3ccnc(Nc4ccccc4)n3)CC2C1 [US20240101552, Compound L-43] | 49.2 µM
8 | O=C(N[C@H]1[C@@H]2CN(C(=O)c3cccnc3Oc3ccccc3)C[C@@H]21)c1cccc(-c2cn3ccccc3n2)c1 [US20240101552, Compound L-105] | 17.5 µM
9 | O=C(N[C@H]1[C@@H]2CN(C(=O)c3cccc(Nc4ccccc4)n3)C[C@@H]21)c1ccnc(Nc2ccccc2)n1 [US20240101552, Compound L-103] | 24.1 µM
10 | O=C(Nc1ccccc1NC(=O)c1cccc(-c2cn3ccccc3n2)c1)c1cccc(-c2cn3ccccc3n2)c1 [US20240101552, Compound L-1] | 4.46 µM
11 | O=C(c1cccc(-c2nc3ccccc3[nH]2)n1)N1CC2CN(C(=O)c3ccnc(Nc4ccccc4)n3)CC2C1 [US20240101552, Compound L-24] | 57.3 µM
12 | O=C(c1cccc(-c2nc3ccccc3[nH]2)n1)N1CC2CN(C(=O)c3ccnc(Nc4ccccn4)n3)CC2C1 [US20240101552, Compound L-26] | 65.8 µM
13 | O=C(c1cccc([N+](=O)[O-])c1)N1CC2CN(C(=O)c3cccc(-c4nc5ccccc5[nH]4)n3)CC2C1 [US20240101552, Compound L-41] | 27.6 µM
14 | O=C(c1cccc(-c2nc3ccccc3[nH]2)n1)N1CC2CN(C(=O)c3ccnc(N4CCOCC4)n3)CC2C1 [US20240101552, Compound L-16] | 84.9 µM

The next lines start with the values.

Row | Kd | Structure (SMILES)
15 | 16.8 µM | O=C(c1cccc(-c2cn3ccccc3n2)c1)N1CC2CN(C(=O)c3cccc(-c4nc5ccccc5[nH]4)n3)CC2C1 [US20240101552, Compound L-55]
16 | 2.3 µM | O=C(c1cccc(-c2nc3ccccc3[nH]2)n1)N1CCC2(CC1)CCN(C(=O)c1ccnc(N3CCOCC3)n1)CC2 [US20240101552, Compound L-15]
17 | 9.5 µM | O=C(N[C@H]1[C@@H]2CN(C(=O)c3cccc(Nc4ccccc4)n3)C[C@@H]21)c1cccc(-c2cn3ccccc3n2)c1 [US20240101552, Compound L-90]
18 | 8.73 µM | O=C(Nc1cccc(-c2cn3ccccc3n2)c1)N1CCN(C(=O)c2cccc(-c3nc4ccccc4[nH]3)n2)CC1 [US20240101552, Compound L-118]
19 | 5.41 µM | O=C(NC1CCN(C(=O)c2ccnc(Nc3ccccc3)n2)CC1)c1ccnc(Nc2ccccn2)n1 [US20240101552, Compound L-99]
20 | 9.09 µM | O=C(NC1CCN(C(=O)c2cccc(-c3nc4ccccc4[nH]3)n2)CC1)c1cccc([N+](=O)[O-])c1 [US20240101552, Compound L-38]
21 | 10.8 µM | O=C(NC1CCN(C(=O)c2cccc(Nc3ccccc3)n2)CC1)c1cccc(Nc2ccccc2)n1 [US20240101552, Compound L-114]
22 | 17 µM | O=C(NC1CCN(C(=O)c2cccc(-c3nc4ccccc4[nH]3)n2)CC1)c1cccc(-c2cn3ccccc3n2)c1 [US20240101552, Compound L-5]
23 | 18.4 µM | O=C(c1cccc(-c2nc3ccccc3[nH]2)n1)N1CC2CN(C(=O)c3cccc(-c4nc5ccccc5[nH]4)n3)CC2C1 [US20240101552, Compound L-10]
24 | 8.31 µM | O=C(c1cccc(Nc2ccccc2)n1)N1CCC2(CC1)CCN(C(=O)c1cccc(-c3nc4ccccc4[nH]3)n1)CC2 [US20240101552, Compound L-45]
25 | 2.53 µM | O=C(N[C@H]1[C@@H]2CN(C(=O)c3cccc(-c4cn5ccccc5n4)c3)C[C@@H]21)c1cccc(-c2cn3ccccc3n2)c1 [US20240101552, Compound L-89]
26 | 3.21 µM | O=C(c1cccc([N+](=O)[O-])c1)N1CCC2(CC1)CCN(C(=O)c1cccc(-c3nc4ccccc4[nH]3)n1)CC2 [US20240101552, Compound L-40]
27 | 13.3 µM | O=C(NC1CCN(C(=O)c2cccc(-c3nc4ccccc4[nH]3)n2)CC1)c1cccc(Nc2ccccc2)n1 [US20240101552, Compound L-47]
28 | 0.719 µM | O=C(NC1C2CN(C(=O)c3cccc(-c4cn5ccccc5n4)c3)CC21)c1cccc(-c2nc3ccccc3[nH]2)n1 [US20240101552, Compound L-2]
29 | 6.92 µM | O=C(c1cccc(-c2cn3ccccc3n2)c1)N1CCC2(CC1)CCN(C(=O)c1cccc(-c3nc4ccccc4[nH]3)n1)CC2 [US20240101552, Compound L-3]
30 | 6.33 µM | O=C(C1CCCN1C(=O)c1cccc(-c2cn3ccccc3n2)c1)N1CC2CN(c3ccc([N+](=O)[O-])cc3)CC2C1 [US20240101552, Compound L-39]
31 | 12.2 µM | O=C(c1ccnc(Nc2ccccc2)n1)N1CCC2(CC1)CCN(C(=O)c1ccnc(Nc3ccccn3)n1)CC2 [US20240101552, Compound L-98]
